According to PubChem BioAssay (NCI):
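Cultured in 96-well plates, cells were exposed to test compound for 48 hours across five concentrations. At the GI50, growth is halved. TGI: concentration producing complete growth inhibition.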

How the values were obtained:
Assay in all cases: NCI anticancer screen, dose series, 48 h
786-0 renal = test system: 786-0 renal
A498 renal = test system: A498 renal
A549 NSCLC = test system: A549 NSCLC
ACHN renal = test system: ACHN renal
BT-549 breast = test system: BT-549 breast
CAKI-1 renal = test system: CAKI-1 renal
CCRF-CEM leukemia = test system: CCRF-CEM leukemia
COLO 205 colon = test system: COLO 205 colon
DU-145 prostate = test system: DU-145 prostate
EKVX NSCLC = test system: EKVX NSCLC
HCC-2998 colon = test system: HCC-2998 colon
HCT-116 colon = test system: HCT-116 colon
HCT-15 colon = test system: HCT-15 colon
HL-60(TB) leukemia = test system: HL-60(TB) leukemia
HOP-62 NSCLC = test system: HOP-62 NSCLC
HOP-92 NSCLC = test system: HOP-92 NSCLC
HS 578T breast = test system: HS 578T breast
HT29 colon = test system: HT29 colon
IGROV1 ovarian = test system: IGROV1 ovarian
K-562 leukemia = test system: K-562 leukemia
KM12 colon = test system: KM12 colon
LOX IMVI melanoma = test system: LOX IMVI melanoma
M14 melanoma = test system: M14 melanoma
MALME-3M melanoma = test system: MALME-3M melanoma
MCF7 breast = test system: MCF7 breast
MDA-MB-231 breast = test system: MDA-MB-231 breast
MDA-MB-435 = test system: MDA-MB-435
MOLT-4 leukemia = test system: MOLT-4 leukemia
NCI-H226 lung = test system: NCI-H226 lung
NCI-H23 lung = test system: NCI-H23 lung
NCI-H460 lung = test system: NCI-H460 lung
NCI-H522 lung = test system: NCI-H522 lung
NCI/ADR-RES ovarian = test system: NCI/ADR-RES ovarian
OVCAR-3 ovarian = test system: OVCAR-3 ovarian
OVCAR-4 ovarian = test system: OVCAR-4 ovarian
OVCAR-5 ovarian = test system: OVCAR-5 ovarian
OVCAR-8 ovarian = test system: OVCAR-8 ovarian
PC-3 prostate = test system: PC-3 prostate
RPMI-8226 leukemia = test system: RPMI-8226 leukemia
RXF 393 renal = test system: RXF 393 renal
SF-268 CNS = test system: SF-268 CNS
SF-295 CNS = test system: SF-295 CNS
SF-539 CNS = test system: SF-539 CNS
SK-MEL-2 melanoma = test system: SK-MEL-2 melanoma
SK-MEL-28 melanoma = test system: SK-MEL-28 melanoma
SK-MEL-5 melanoma = test system: SK-MEL-5 melanoma
SK-OV-3 ovarian = test system: SK-OV-3 ovarian
SN12C renal = test system: SN12C renal
SNB-19 CNS = test system: SNB-19 CNS
SNB-75 CNS = test system: SNB-75 CNS
SR leukemia = test system: SR leukemia
SW-620 colon = test system: SW-620 colon
TK-10 renal = test system: TK-10 renal
U251 CNS = test system: U251 CNS
UACC-257 melanoma = test system: UACC-257 melanoma
UACC-62 melanoma = test system: UACC-62 melanoma
UO-31 renal = test system: UO-31 renal

**Q.** For `COc1ccc2[nH]c(C(=O)OCc3ccc4cccc(O)c4n3)cc2c1`, which GI50 (786-0 renal) is on record?
**A.** 1680 nM

**Q.** What about the TGI (786-0 renal) of the same compound?
**A.** 3310 nM

**Q.** What about the GI50 (A498 renal) of the same compound?
**A.** 2650 nM

**Q.** And the TGI (A498 renal)?
**A.** 5570 nM

**Q.** And the GI50 (A549 NSCLC)?
**A.** 1810 nM

**Q.** What about the TGI (A549 NSCLC) of the same compound?
**A.** 3920 nM

**Q.** And the GI50 (ACHN renal)?
**A.** 690 nM

**Q.** What about the TGI (ACHN renal) of the same compound?
**A.** 1980 nM

**Q.** And the GI50 (BT-549 breast)?
**A.** 1690 nM

**Q.** What about the TGI (BT-549 breast) of the same compound?
**A.** 3740 nM

**Q.** What about the GI50 (CAKI-1 renal) of the same compound?
**A.** 1130 nM

**Q.** And the TGI (CAKI-1 renal)?
**A.** 2490 nM

**Q.** And the GI50 (CCRF-CEM leukemia)?
**A.** 148 nM

**Q.** And the TGI (CCRF-CEM leukemia)?
**A.** 1110 nM

**Q.** And the GI50 (COLO 205 colon)?
**A.** 1290 nM

**Q.** And the TGI (COLO 205 colon)?
**A.** 2910 nM

**Q.** What about the GI50 (DU-145 prostate) of the same compound?
**A.** 1530 nM

**Q.** And the TGI (DU-145 prostate)?
**A.** 2930 nM

**Q.** And the GI50 (EKVX NSCLC)?
**A.** 1510 nM

**Q.** What about the TGI (EKVX NSCLC) of the same compound?
**A.** 2890 nM

**Q.** And the GI50 (HCC-2998 colon)?
**A.** 1430 nM

**Q.** And the TGI (HCC-2998 colon)?
**A.** 2920 nM

**Q.** What about the GI50 (HCT-116 colon) of the same compound?
**A.** 390 nM

**Q.** What about the TGI (HCT-116 colon) of the same compound?
**A.** 1850 nM

**Q.** What about the GI50 (HCT-15 colon) of the same compound?
**A.** 757 nM

**Q.** What about the TGI (HCT-15 colon) of the same compound?
**A.** 3180 nM

**Q.** What about the GI50 (HL-60(TB) leukemia) of the same compound?
**A.** 1180 nM

**Q.** What about the TGI (HL-60(TB) leukemia) of the same compound?
**A.** 3400 nM

**Q.** And the GI50 (HOP-62 NSCLC)?
**A.** 1520 nM

**Q.** What about the TGI (HOP-62 NSCLC) of the same compound?
**A.** 3500 nM

**Q.** And the GI50 (HOP-92 NSCLC)?
**A.** 209 nM

**Q.** And the TGI (HOP-92 NSCLC)?
**A.** 1420 nM

**Q.** What about the GI50 (HS 578T breast) of the same compound?
**A.** 1780 nM

**Q.** And the TGI (HS 578T breast)?
**A.** 4600 nM

**Q.** What about the GI50 (HT29 colon) of the same compound?
**A.** 775 nM

**Q.** And the TGI (HT29 colon)?
**A.** 2770 nM

**Q.** And the GI50 (IGROV1 ovarian)?
**A.** 751 nM

**Q.** What about the TGI (IGROV1 ovarian) of the same compound?
**A.** 2080 nM

**Q.** What about the GI50 (K-562 leukemia) of the same compound?
**A.** 283 nM

**Q.** What about the TGI (K-562 leukemia) of the same compound?
**A.** 2660 nM

**Q.** And the GI50 (KM12 colon)?
**A.** 1940 nM

**Q.** What about the TGI (KM12 colon) of the same compound?
**A.** 3900 nM

**Q.** And the GI50 (LOX IMVI melanoma)?
**A.** 779 nM

**Q.** And the TGI (LOX IMVI melanoma)?
**A.** 2140 nM

**Q.** What about the GI50 (M14 melanoma) of the same compound?
**A.** 564 nM

**Q.** What about the TGI (M14 melanoma) of the same compound?
**A.** 2040 nM

**Q.** What about the GI50 (MALME-3M melanoma) of the same compound?
**A.** 1520 nM

**Q.** And the TGI (MALME-3M melanoma)?
**A.** 2890 nM

**Q.** And the GI50 (MCF7 breast)?
**A.** 723 nM

**Q.** What about the TGI (MCF7 breast) of the same compound?
**A.** 2790 nM

**Q.** What about the GI50 (MDA-MB-231 breast) of the same compound?
**A.** 1170 nM

**Q.** What about the TGI (MDA-MB-231 breast) of the same compound?
**A.** 2490 nM

**Q.** What about the GI50 (MDA-MB-435) of the same compound?
**A.** 1520 nM

**Q.** And the TGI (MDA-MB-435)?
**A.** 3130 nM

**Q.** What about the GI50 (MOLT-4 leukemia) of the same compound?
**A.** 641 nM

**Q.** What about the TGI (MOLT-4 leukemia) of the same compound?
**A.** 2990 nM

**Q.** And the GI50 (NCI-H226 lung)?
**A.** 1400 nM

**Q.** And the TGI (NCI-H226 lung)?
**A.** 3140 nM

**Q.** What about the GI50 (NCI-H23 lung) of the same compound?
**A.** 1440 nM

**Q.** And the TGI (NCI-H23 lung)?
**A.** 3070 nM

**Q.** And the GI50 (NCI-H460 lung)?
**A.** 2240 nM

**Q.** What about the TGI (NCI-H460 lung) of the same compound?
**A.** 5410 nM

**Q.** What about the GI50 (NCI-H522 lung) of the same compound?
**A.** 1390 nM

**Q.** And the TGI (NCI-H522 lung)?
**A.** 3250 nM

**Q.** And the GI50 (NCI/ADR-RES ovarian)?
**A.** 1940 nM

**Q.** What about the TGI (NCI/ADR-RES ovarian) of the same compound?
**A.** 5910 nM

**Q.** What about the GI50 (OVCAR-3 ovarian) of the same compound?
**A.** 1110 nM

**Q.** And the TGI (OVCAR-3 ovarian)?
**A.** 2410 nM

**Q.** What about the GI50 (OVCAR-4 ovarian) of the same compound?
**A.** 1830 nM

**Q.** What about the TGI (OVCAR-4 ovarian) of the same compound?
**A.** 3550 nM

**Q.** What about the GI50 (OVCAR-5 ovarian) of the same compound?
**A.** 1450 nM

**Q.** And the TGI (OVCAR-5 ovarian)?
**A.** 2960 nM

**Q.** And the GI50 (OVCAR-8 ovarian)?
**A.** 1380 nM

**Q.** What about the TGI (OVCAR-8 ovarian) of the same compound?
**A.** 4040 nM

**Q.** And the GI50 (PC-3 prostate)?
**A.** 247 nM

**Q.** And the TGI (PC-3 prostate)?
**A.** 1320 nM

**Q.** And the GI50 (RPMI-8226 leukemia)?
**A.** 288 nM

**Q.** What about the TGI (RPMI-8226 leukemia) of the same compound?
**A.** 874 nM

**Q.** And the GI50 (RXF 393 renal)?
**A.** 1060 nM

**Q.** What about the TGI (RXF 393 renal) of the same compound?
**A.** 2310 nM

**Q.** What about the GI50 (SF-268 CNS) of the same compound?
**A.** 1650 nM

**Q.** And the TGI (SF-268 CNS)?
**A.** 3130 nM

**Q.** And the GI50 (SF-295 CNS)?
**A.** 4980 nM

**Q.** What about the TGI (SF-295 CNS) of the same compound?
**A.** 18100 nM

**Q.** And the GI50 (SF-539 CNS)?
**A.** 1270 nM

**Q.** What about the TGI (SF-539 CNS) of the same compound?
**A.** 2530 nM

**Q.** What about the GI50 (SK-MEL-2 melanoma) of the same compound?
**A.** 1740 nM

**Q.** What about the TGI (SK-MEL-2 melanoma) of the same compound?
**A.** 3720 nM

**Q.** And the GI50 (SK-MEL-28 melanoma)?
**A.** 1610 nM

**Q.** And the TGI (SK-MEL-28 melanoma)?
**A.** 3000 nM

**Q.** What about the GI50 (SK-MEL-5 melanoma) of the same compound?
**A.** 1760 nM

**Q.** What about the TGI (SK-MEL-5 melanoma) of the same compound?
**A.** 3180 nM

**Q.** And the GI50 (SK-OV-3 ovarian)?
**A.** 11100 nM

**Q.** And the TGI (SK-OV-3 ovarian)?
**A.** 23200 nM

**Q.** What about the GI50 (SN12C renal) of the same compound?
**A.** 1180 nM

**Q.** And the TGI (SN12C renal)?
**A.** 2540 nM

**Q.** And the GI50 (SNB-19 CNS)?
**A.** 2830 nM

**Q.** What about the TGI (SNB-19 CNS) of the same compound?
**A.** 11200 nM

**Q.** And the GI50 (SNB-75 CNS)?
**A.** 1060 nM

**Q.** And the TGI (SNB-75 CNS)?
**A.** 2300 nM

**Q.** What about the GI50 (SR leukemia) of the same compound?
**A.** 251 nM

**Q.** And the TGI (SR leukemia)?
**A.** 1250 nM

**Q.** What about the GI50 (SW-620 colon) of the same compound?
**A.** 1200 nM

**Q.** What about the TGI (SW-620 colon) of the same compound?
**A.** 3150 nM

**Q.** And the GI50 (TK-10 renal)?
**A.** 1810 nM

**Q.** What about the TGI (TK-10 renal) of the same compound?
**A.** 3270 nM

**Q.** And the GI50 (U251 CNS)?
**A.** 1670 nM

**Q.** What about the TGI (U251 CNS) of the same compound?
**A.** 3150 nM

**Q.** What about the GI50 (UACC-257 melanoma) of the same compound?
**A.** 2020 nM

**Q.** And the TGI (UACC-257 melanoma)?
**A.** 5680 nM

**Q.** What about the GI50 (UACC-62 melanoma) of the same compound?
**A.** 1310 nM

**Q.** And the TGI (UACC-62 melanoma)?
**A.** 2600 nM

**Q.** And the GI50 (UO-31 renal)?
**A.** 551 nM

**Q.** And the TGI (UO-31 renal)?
**A.** 1990 nM
